Measured values from paper PMC8168755, “Discovery of new VEGFR-2 inhibitors based on bis([1, 2, 4]triazolo)[4,3-a:3',4'-c]quinoxaline derivatives as anticancer agents and apoptosis inducers” (Journal of Enzyme Inhibition and Medicinal Chemistry, 2021).
Where two headings read alike, the source gives them in different places.

Tests used:
MCF-7 = assay: In vitro anti-proliferative activity (MTT assay), MCF-7; format: cell-based, human; conditions: read-out: IC50 (µM) MCF-7
Protocol: (§1) All newly prepared compounds were assessed for their in vitro cytotoxic efficiencies via standard MTT method, against breast cancer (MCF-7) and hepatocellular carcinoma (HepG2) cell lines.
(§2) MTT assay protocol[55–57]^,[74] was applied as described in Supplementary data.
(§3) Experimental of biological testing
(§4) 1. In vitro anti-proliferative activity
(§5) the synthesized compounds.
(§6) oC for 48 h under 5% CO2.
(§7) the synthesized compounds and incubated for 24 h.

HepG2 = assay: In vitro anti-proliferative activity (MTT assay), HepG2; format: cell-based, human; conditions: read-out: IC50 (µM) HepG2
Protocol: as §1, §2, §3, §4, §5, §6, §7

[1] = test system: MCF-7 and HepG2 cell lines; assay: In vitro anti-proliferative activity (MTT assay), stated over both cell lines; format: cell-based; conditions: Homo sapiens, read-out: IC50 values ranging over the two cell lines (MCF-7 and HepG2)
VEGFR-2 = VEGFR-2 (Homo sapiens, UniProt P35968); assay: biochemical
Protocol: All the synthesised compounds were tested for their inhibitory activity against VEGFR-2 as described in Supplementary data[75].
Experimental of biological testing […]
2. In vitro VEGFR-2 kinase assay
All the synthesized compounds were tested for its inhibitory activity against VEGFR-2. Human VEGFR-2 ELISA kit (Enzyme-Linked Immunosorbent Assay) was utilized in this test. At first, specific antibody for VEGFR-2 was seeded on a 96-well plate and 100 μL of the standard solution or the tested compound was added, all were incubated at room temperature for 2.5 h. Then washed, 100 μL of the prepared biotin antibody was added, then incubated at room temperature for additional 1 h. and washed. Then, 100 μL of streptavidin solution was added and incubated for 45 min. at room temperature. Washed again, 100 μL of TMB Substrate reagent was added and incubated for 30 min. at room temperature. 50 μL of the stop solution was added, then read at 450 […]
nm immediately. […]

BAX = conditions: HepG2, 24 h
Bcl-2 = conditions: HepG2, 24 h
[2] = Homo sapiens, MCF7, MTT, 24 h treatment, mean ± SD of three separate experiments
[3] = Homo sapiens, HepG2, MTT, 24 h treatment, mean ± SD of three separate experiments
[4] = MTT, range stated for a group of compounds and both cell lines
[5] = mean ± SD of three separate experiments
[6] = MTT, 24 h treatment, mean ± SD of three separate experiments
[7] = control 1.00, mean ± SEM of three experiments

Sequence of VEGFR-2 (P35968 20-1356): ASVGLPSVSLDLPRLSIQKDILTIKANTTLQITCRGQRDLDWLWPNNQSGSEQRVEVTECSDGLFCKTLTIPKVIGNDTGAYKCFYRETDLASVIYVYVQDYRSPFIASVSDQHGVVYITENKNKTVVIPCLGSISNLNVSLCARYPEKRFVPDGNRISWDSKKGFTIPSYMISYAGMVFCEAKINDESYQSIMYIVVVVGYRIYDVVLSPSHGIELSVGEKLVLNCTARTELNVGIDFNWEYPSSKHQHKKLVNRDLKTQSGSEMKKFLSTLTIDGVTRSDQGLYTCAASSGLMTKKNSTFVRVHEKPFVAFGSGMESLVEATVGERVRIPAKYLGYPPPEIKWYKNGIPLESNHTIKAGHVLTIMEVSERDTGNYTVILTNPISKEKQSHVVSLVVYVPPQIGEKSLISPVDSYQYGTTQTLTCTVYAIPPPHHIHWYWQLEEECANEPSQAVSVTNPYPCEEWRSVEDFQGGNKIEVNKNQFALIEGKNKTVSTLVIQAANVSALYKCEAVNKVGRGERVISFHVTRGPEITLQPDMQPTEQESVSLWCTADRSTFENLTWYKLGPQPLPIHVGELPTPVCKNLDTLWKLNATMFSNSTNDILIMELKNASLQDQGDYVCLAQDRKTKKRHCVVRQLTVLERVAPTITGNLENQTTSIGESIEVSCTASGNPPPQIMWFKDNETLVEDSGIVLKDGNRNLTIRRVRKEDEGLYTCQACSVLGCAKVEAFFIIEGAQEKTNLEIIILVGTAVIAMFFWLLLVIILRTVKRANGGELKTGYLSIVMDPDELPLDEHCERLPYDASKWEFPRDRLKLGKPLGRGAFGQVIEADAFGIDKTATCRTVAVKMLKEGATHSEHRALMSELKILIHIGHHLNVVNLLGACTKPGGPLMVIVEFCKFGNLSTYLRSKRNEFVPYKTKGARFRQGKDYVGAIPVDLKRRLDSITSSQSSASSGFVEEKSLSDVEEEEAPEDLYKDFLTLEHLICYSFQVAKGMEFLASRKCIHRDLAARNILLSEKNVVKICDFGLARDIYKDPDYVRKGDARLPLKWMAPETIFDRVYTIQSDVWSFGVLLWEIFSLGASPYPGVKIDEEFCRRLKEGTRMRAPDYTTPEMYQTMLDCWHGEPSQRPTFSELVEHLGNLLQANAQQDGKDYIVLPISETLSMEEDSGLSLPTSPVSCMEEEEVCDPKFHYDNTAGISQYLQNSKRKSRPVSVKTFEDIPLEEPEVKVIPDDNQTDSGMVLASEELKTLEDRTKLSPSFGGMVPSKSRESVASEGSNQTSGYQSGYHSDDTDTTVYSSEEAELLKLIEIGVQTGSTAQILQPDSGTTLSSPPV

CCNC(=O)c1ccc(NC(=O)CSc2nnc3c4nncn4c4ccccc4n23)cc1 [Compound 23a, 4-(2-(Bis([1,2, 4]triazolo)[4,3-a:3',4'-c]quinoxalin-3-ylthio)acetamido)-N-ethylbenzamide]
IC50 (MCF-7; [2]): 17.7 ± 1.5 µM | IC50 (HepG2; [3]): 11.3 ± 0.9 µM | IC50 [1, 4]: 6.4 to 19.4 µM | IC50 (VEGFR-2; [5]): 7.1 ± 0.4 nM

CCCCNC(=O)c1ccc(NC(=O)CSc2nnc3c4nncn4c4ccccc4n23)cc1 [Compound 23b, 4-(2-(Bis([1,2, 4]triazolo)[4,3-a:3',4'-c]quinoxalin-3-ylthio)acetamido)-N-butylbenzamide]
IC50 (MCF-7; [2]): 78.9 ± 6.1 µM | IC50 (HepG2; [3]): 69.1 ± 6.1 µM | IC50 (VEGFR-2; [5]): 71.6 ± 5.2 nM

CCC(C)NC(=O)c1ccc(NC(=O)CSc2nnc3c4nncn4c4ccccc4n23)cc1 (stereo not drawn) [Compound 23c, 4-(2-(Bis([1,2, 4]triazolo)[4,3-a:3',4'-c]quinoxalin-3-ylthio)acetamido)-N-(sec-butyl)benzamide]
IC50 (MCF-7; [2]): 76.2 ± 6.9 µM | IC50 (HepG2; [3]): 69.8 ± 5.9 µM | IC50 (VEGFR-2; [5]): 47.1 ± 4.2 nM

CC(C)(C)NC(=O)c1ccc(NC(=O)CSc2nnc3c4nncn4c4ccccc4n23)cc1 [Compound 23d, 4-(2-(Bis([1,2, 4]triazolo)[4,3-a:3',4'-c]quinoxalin-3-ylthio)acetamido)-N-(tert-butyl)benzamide]
IC50 (MCF-7; [2]): 21.6 ± 1.8 µM | IC50 (HepG2; [3]): 17.5 ± 1.2 µM | IC50 [1, 4]: 15.2 to 48.3 µM | IC50 (VEGFR-2; [5]): 11.8 ± 0.8 nM

O=C(CSc1nnc2c3nncn3c3ccccc3n12)Nc1ccc(C(=O)NC2CCCC2)cc1 [Compound 23e, 4-(2-(Bis([1,2, 4]triazolo)[4,3-a:3',4'-c]quinoxalin-3-ylthio)acetamido)-N-cyclopentylbenzamide]
IC50 (MCF-7; [2]): 78.3 ± 6.5 µM | IC50 (HepG2; [3]): 74.8 ± 6.9 µM | IC50 (VEGFR-2; [5]): 39.8 ± 3.1 nM

O=C(CSc1nnc2c3nncn3c3ccccc3n12)Nc1ccc(C(=O)NC2CCCCC2)cc1 [Compound 23f, 4-(2-(Bis([1,2, 4]triazolo)[4,3-a:3',4'-c]quinoxalin-3-ylthio)acetamido)-N-cyclohexylbenzamide]
IC50 (MCF-7; [2]): 74.1 ± 6.7 µM | IC50 (HepG2; [3]): 70.4 ± 5.8 µM | IC50 (VEGFR-2; [5]): 39.5 ± 2.9 nM

CC(=O)c1ccc(NC(=O)c2ccc(NC(=O)CSc3nnc4c5nncn5c5ccccc5n34)cc2)cc1 [Compound 23g, N-(4-Acetylphenyl)-4-(2-(bis([1,2, 4]triazolo)[4,3-a:3',4'-c]quinoxalin-3-ylthio)acetamido)benzamide]
IC50 (MCF-7; [2]): 81.3 ± 7.4 µM | IC50 (HepG2; [3]): 80.7 ± 7.1 µM | IC50 (VEGFR-2; [5]): 62.7 ± 5.7 nM

O=C(CSc1nnc2c3nncn3c3ccccc3n12)Nc1ccc(C(=O)Nc2cccc(Cl)c2)cc1 [Compound 23h, 4-(2-(Bis([1,2, 4]triazolo)[4,3-a:3',4'-c]quinoxalin-3-ylthio)acetamido)-N-(3-chlorophenyl)benzamide]
IC50 (MCF-7; Homo sapiens, MCF7, 24 h): 37.2 ± 3.2 µM | IC50 (HepG2; Homo sapiens, HepG2, 24 h): 22.3 ± 1.8 µM | IC50 [1]: 15.2 to 48.3 µM | IC50 (VEGFR-2): 11.7 ± 0.9 nM

O=C(CSc1nnc2c3nncn3c3ccccc3n12)Nc1ccc(C(=O)Nc2ccc(Cl)cc2)cc1 [Compound 23i, 4-(2-(Bis([1,2, 4]triazolo)[4,3-a:3',4'-c]quinoxalin-3-ylthio)acetamido)-N-(4-chlorophenyl)benzamide]
IC50 (VEGFR-2; [5]): 9.4 ± 0.7 nM

O=C(CSc1nnc2c3nncn3c3ccccc3n12)Nc1ccc(C(=O)Nc2cc(Cl)ccc2Cl)cc1 [Compound 23j, 4-(2-(Bis([1,2, 4]triazolo)[4,3-a:3′,4′-c]uinoxaline-3-ylthio)acetamido)-N-(2,5-dichlorophenyl)benzamide]
IC50 (MCF-7; [6]): 10.3 ± 0.8 µM | IC50 (HepG2; [6]): 6.4 ± 0.5 µM | IC50 (VEGFR-2): 3.7 ± 0.2 nM | Increase of BAX level (BAX; compared to control cells): 1.65 fold | Protein expression (normalized to β-actin) BAX (BAX; [7]): 1.65 ± 0.06 | Decrease of Bcl-2 level (Bcl-2; compared to control cells): 2.63 fold | Protein expression (normalized to β-actin) Bcl-2 (Bcl-2; [7]): 0.38 ± 0.03

O=C(CSc1nnc2c3nncn3c3ccccc3n12)Nc1ccc(C(=O)Nc2ccc(F)cc2)cc1 [Compound 23k, 4-(2-(Bis([1,2, 4]triazolo)[4,3-a:3′,4′-c]uinoxaline-3-ylthio)acetamido)-N-(4-fluorophenyl)benzamide]
IC50 (MCF-7; [2]): 68.2 ± 5.2 µM | IC50 (HepG2; [3]): 71.8 ± 6.3 µM | IC50 (VEGFR-2; [5]): 49.6 ± 4.1 nM

O=C(CSc1nnc2c3nncn3c3ccccc3n12)Nc1ccc(C(=O)Nc2ccccc2O)cc1 [Compound 23l, 4-(2-(Bis([1,2, 4]triazolo)[4,3-a:3′,4′-c]uinoxaline-3-ylthio)acetamido)-N-(2-hydroxyphenyl)benzamide]
IC50 (MCF-7; [6]): 19.4 ± 1.1 µM | IC50 (HepG2; [6]): 11.3 ± 0.7 µM | IC50 (VEGFR-2; [5]): 5.8 ± 0.3 nM

O=C(CSc1nnc2c3nncn3c3ccccc3n12)Nc1ccc(C(=O)Nc2ccc(O)cc2)cc1 [Compound 23m, 4-(2-(Bis([1,2, 4]triazolo)[4,3-a:3′,4′-c]uinoxaline-3-ylthio)acetamido)-N-(4-hydroxyphenyl)benzamide]
IC50 (MCF-7; [2]): 21.6 ± 1.7 µM | IC50 (HepG2; [3]): 15.2 ± 1.2 µM | IC50 [1, 4]: 15.2 to 48.3 µM | IC50 (VEGFR-2; [5]): 9.7 ± 0.7 nM

O=C(CSc1nnc2c3nncn3c3ccccc3n12)Nc1ccc(C(=O)Nc2ccc([N+](=O)[O-])cc2O)cc1 [Compound 23n, 4-(2-(Bis([1,2, 4]triazolo)[4,3-a:3′,4′-c]uinoxaline-3-ylthio)acetamido)-N-(2-hydroxy-4-nitrophenyl)benzamide]
IC50 (MCF-7; [2]): 16.5 ± 1.3 µM | IC50 (HepG2; [3]): 12.7 ± 0.9 µM | IC50 [1, 4]: 6.4 to 19.4 µM | IC50 (VEGFR-2; [5]): 7.4 ± 0.5 nM

O=C(CSc1nnc2c3nncn3c3ccccc3n12)Nc1ccc(C(=O)NNC(=O)c2ccccc2Cl)cc1 [Compound 24a, 2-(Bis([1,2, 4]triazolo)[4,3-a:3',4'-c]quinoxalin-3-ylthio)-N-(4–(2-(2-chlorobenzoyl)hydrazine-1-carbonyl)phenyl)acetamide]
IC50 (MCF-7; [2]): 48.3 ± 3.9 µM | IC50 (HepG2; [3]): 34.5 ± 2.8 µM | IC50 [1, 4]: 15.2 to 48.3 µM | IC50 (VEGFR-2; [5]): 23.9 ± 1.9 nM

O=C(CSc1nnc2c3nncn3c3ccccc3n12)Nc1ccc(C(=O)NNC(=O)c2cccc(Cl)c2)cc1 [Compound 24b, 2-(Bis([1,2, 4]triazolo)[4,3-a:3',4'-c]quinoxalin-3-ylthio)-N-(4–(2-(3-chlorobenzoyl)hydrazine-1-carbonyl)phenyl)acetamide]
IC50 (MCF-7; [2]): 42.7 ± 3.7 µM | IC50 (HepG2; [3]): 30.3 ± 2.7 µM | IC50 [1, 4]: 15.2 to 48.3 µM | IC50 (VEGFR-2; [5]): 22.3 ± 1.8 nM

O=C(CSc1nnc2c3nncn3c3ccccc3n12)Nc1ccc(C(=O)NNC(=O)c2ccccc2O)cc1 [Compound 24c, 2-(Bis([1,2, 4]triazolo)[4,3-a:3',4'-c]quinoxalin-3-ylthio)-N-(4–(2-(2-hydroxybenzoyl)hydrazine-1-carbonyl)phenyl)acetamide]
IC50 (MCF-7; [2]): 40.7 ± 3.7 µM | IC50 (HepG2; [3]): 29.8 ± 2.1 µM | IC50 [1, 4]: 15.2 to 48.3 µM | IC50 (VEGFR-2; [5]): 20.7 ± 1.6 nM

CNC(=O)c1cc(Oc2ccc(NC(=O)Nc3ccc(Cl)c(C(F)(F)F)c3)cc2)ccn1 [Sorafenib, sorafenib, reference compound]
IC50 (MCF-7; [2]): 3.51 ± 0.22 µM | IC50 (HepG2; [3]): 2.17 ± 0.14 µM
